This note sets out measurements from patent US20230095341A1, “COMPOSITIONS AND METHODS FOR TREATING NEURODEGENERATIVE, MYODEGENERATIVE, AND LYSOSOMAL STORAGE DISORDERS” (GEORGETOWN UNIVERSITY, priority 2020, published 2023).

The subject of one series is murine Tau. As to the kind of experiment: Tau ELISA of whole brain lysates from A53T mice. In kind it is in vivo, mouse (A53T). Particulars: 21 days, 12 month old A53T mice. In general terms: In an ELISA, binding on a coated surface is turned into a signal by an enzyme label.
In series [1] the test system is B35 rat neuroblastoma cells. As to the kind of experiment: Lactate dehydrogenase (LDH) assay, cell toxicity. The series is classed as cell-based. As to conditions: 5 hours, concentration given in the value. How it is done: (§1) Rat neuroblastoma B35 cells were grown in Dulbecco's Modified Eagle's Medium (DMEM) with 10% Fetal Bovine Serum (FBS) and 1% penicillin/streptomycin and incubated at 37° C. with 5% CO2. For the experiments, cells were transferred to 12-well plates (Cat. #150628, ThermoFisher, Waltham, Mass.) and grown to at least 70% confluence. Transient transfection was performed with 3pg P301L tau (Cat. #30145, Addgene) cDNA or 3pg human a-synuclein cDNA using Fugene HD transfection reagent (Cat. #E2311, Promega, Madison Wis.) for 24 hours. Cells were treated with ImM, I00pM, 10pM, IpM, 0.lIM, 0.01pMl, and 0.001pM dissolved in DMSO or an equivalent SuL of DMSO for 5 hours. Cell culture media was collected and cells were harvested using sodium-tris, EDTA, NP-40 (STEN) buffer and centrifuged at 10,000×g for 20 minutes at 4′C and supernatant was collected. Cell viability was determined via lactate dehydrogenase assay (Cat. #88954, Thermofisher) and MTT assay (Cat. #V13154, Thennofisher). Protein was extracted by removing culture medium and adding 0.2 ml lx STEN buffer (50 mM Tris (pH 7.6), 150 mM NaCl, 2 mM EDTA, 0.2% NP-40, 0.2% BSA, 20 mM PMSF and protease cocktail inhibitor) to cell layer and incubated on ice for 10 minutes. The bottom of the well was scraped and allowed to incubate on ice for an additional 10 minutes. Cell lysates were collected, stored at -80° C., and used for additional analyses.
(§2) Compound 1 (BK5018), Compound 2 (BK5026), Compound 3 (BK5029), Compound 4 (BD5040), Compound 6 (CL2-296). Compound 7 (CL-2-287-1) and Compound 8 (CL-2-287-2) with molecular weights of 284, 339.265, 264, 339, 269 and 247 gimol, respectively, were diluted in Dimethyl Sulfoxide (DMSO) to final concentrations of 100 pM, 10 µM, 1 pM, 0.1 pM, 0.01 pM, and 0.001 pM. Drugs were stored at −80° C.
Cellular cytotoxicity was quantitatively measured by assessment of LDH, a cytosolic enzyme that is released from damaged cells into the cellular media, after exposure to the drug 5 hours after initial dosage. The cell culture media was collected, and an aliquot was coupled with a lactate and NAD+. LDH catalyzes the reaction that converts lactate into pyruvate to produce NADH. NADH, in turn, reduces a tetrazolium salt (NT) into a red fornazan product. The amount of LDH in the media is proportional to the amount of formazan which was measured at 490 nn. The absorbance at 680 nm, to measure the background signal from the instrument, was subtracted from the absorbance at 490 nm to calculate the LDH activity. CelfCulture

Series [2] has as its system B35 rat neuroblastoma cells. Put plainly: MTT assay, cell viability. In kind it is cell-based. Particulars: 5 hours, concentration given in the value. The procedure: as §1, §2
To measure cell viability, cells were incubated with 500 pL of Dulbecco's Modified Eagle's Medium (DMEf) containing 50 pL of (3-[4,5-dimethylthiazol-2-yl]-2,5-diphenyl-tetrazolium bromide (ivT)) for 5 hours at 37° C. and 5% CO2. The media was aspirated so that 125 uL of media remained. The formazan salts were dissolved in 250 uL of DMSO. Absorbance was read against a blank containing 125 uL of media and MTT, and 250 uL of DMSO at 570 mn.
On the technique in general: Formazan colour is commonly taken as a measure of viable cells.

Series [3] relates to alpha-synuclein in a-synuclein-transfected B35 rat neuroblastoma cells. As to the kind of experiment: Reduction of alpha-synuclein in a-synuclein-transfected B35 cells. In kind it is cell-based, rat cells transfected with human a-synuclein cDNA. Particulars: treatment for five hours with 100aM, lOuM and luM concentrations. The procedure:
as §1
To perform transient transfection of a-synuclein into the rat neuroblastoma B35 cells FuGene@ HD Transfection Reagent (Promega Corporation, Madison, Wis.) was used. Cells were grown in 12-well dishes. A mixture containing 12 pg of cDNA, 540 pg of DMEM containing 2% FBS, and 60 pd of FuGene@ HD Transfection Reagent was incubated for 10 minutes. The cells were treated with 50 pl of the FuGeneC HD Transfection Reagent/DNA mixture for 24 hours. Cells were harvested after transfection, media was aspirated, the cells were treated with 200ul of Sodium Tris EDTA NP40 (STEN) lysis buffer then scraped off the plate and collected into a 1.5 ml centrifiuge tube.

The subject of series [4] is Tauopathy rTG4510 mice expressing human P301L tau. As to the kind of experiment: Overnight nest shredding (nesting) behavior. The series is classed as in vivo, mouse. As to conditions: 10 mg/kg, 3 weeks, vs DMSO (Kruskal-Wallis P=0.01), rTG4510 mice. The procedure: Tauopathy rTG4510 mice (i.e., a mouse model that clinically manifest a tauopathy), expressing human P301L tau driven by a CAMrII promoter, approximately 9-12 months old, were treated intraperitoneally (I.P.) for 21 consecutive days, […], or Dimethyl sulfoxide (DMSO) (n=7).
Then, blinded, independent observers reviewed images of the overnight shredding and the average quality scores were calculated.
For nest shredding, Mann-Whitney analysis was used within groups, between timepoints, and Kruskal-Wallis analysis was used between treatment groups. For open-field studies, : ordinary one-way ANOVA or Student's I test was used. […]
Blinded independent observers reviewed images of the overnight shredding and the average quality scores were calculated.

The mark [5] stands for this setting: 2.5 mg/kg, 5 mg/kg and 10 mg/kg I.P.

Molecules are shown by their SMILES. Values joined by “and” are separate entries in the source; they are usually repeats but may differ in a detail not shown here. Equal entries are not always repeated. “Also recorded” adds a separate entry of the source.

Consider `COc1cccc(Nc2ccnc3cc(Cl)ccc23)c1` [BK5018, 7-Chloro-N-(3-methoxyphenyl)quinoin-4-amine], for which the “murine Tau in whole brain lysates” value in the series with murine Tau (2.5 mg/kg and 10 mg/kg I.P.) is given as “significant reduction”. Also, in series [1], the “cell toxicity, as measured by LDH assay” value was 100aM and luM of BK5018 displayed increased levels of LDH and 100 uM and luM of BK5018 displayed increased toxicity. The “cell toxicity, as measured by MTT assay” value in series [2] is “no concentration of BK5018 displayed increased toxicity”.
Turning to `Cc1cccc(Nc2cc(Nc3cccc(C)c3)c3ccccc3n2)c1` [BK5026, N^2,N^4-Di-m-tolyquinoline-2,4-diamine], in series [1], the “cell toxicity, as measured by LDH assay” value was “lOOuM and 1OuM concentrations of BK5026 displayed increased levels of cell toxicity and 100 uM”. Moreover, the “cell toxicity, as measured by MTT assay” value in series [2] was “OOuM concentrations ofBK5026 displayed increased levels of cell toxicity”.
Regarding `COc1ccc2nccc(Oc3ccc(C)cc3)c2c1` [BK5029, 6-Methoxy-4-(p-tolyloxy)quinoUne], the “murine Tau in whole brain lysates” value in the series on murine Tau (setting [5]) is on record as “significant reduction”. For the same compound, in series [1], the “cell toxicity, as measured by LDH assay” value is “low doses of BK5029 displayed increased toxicity”. The “cell toxicity, as measured by MTT assay” value in series [2] was “low doses of BK5029 displayed increased toxicity”. The level of alpha-synuclein entry in series [3] was “none of the compounds significantly reduced the level of alpha-synuclein; also recorded: do not significantly reduce”.
Turning to `COc1ccc2nccc(Nc3cccc(C)c3)c2c1` [BK5030, 6-Methoxy-N-(m-toIyl)quinolin-4-amine], the “cell toxicity, as measured by LDH assay” value in series [1] is “no concentration of BK5030 displayed increased toxicity”. Also, the “cell toxicity, as measured by MTT assay” value in series [2] is “no concentration of BK5030 displayed increased toxicity”. In series [3], the level of alpha-synuclein result is “none of the compounds significantly reduced the level of alpha-synuclein; also recorded: do not significantly reduce”.
With `Cc1cccc(Nc2ccc3c(Nc4cccc(C)c4)nccc3c2)c1` [CL2-296, N^4,N^6—Di-m-tolylisoquinoline-1,6-diamine], the “murine Tau in whole brain lysates” value in the series with murine Tau (setting [5]) is reported as “significant reduction”. Besides, in series [1], the “cell toxicity, as measured by LDH assay” value was 100 uM and IOuM concentrations of CL2-296 displayed decreased levels of LDH and no other concentration of CL2-296 displayed increased cell toxicity and 100luM and 10 uM concentrations of CL2-296 displayed decreased levels of LDH. Also, the “cell toxicity, as measured by MTT assay” value in series [2] was “no concentration of CL2-296 displayed increased cell toxicity”. Moreover, the level of alpha-synuclein result in series [3] is recorded as “none of the compounds significantly reduced the level of alpha-synuclein; also recorded: do not significantly reduce”.
Consider `CC(C)(C)c1ccccc1Nc1ccccc1C(=O)O` [CL-2-287-1, 2-((2-(tert-Buty)phenyl)amino)benzoic adid], for which, in series [1], the “cell toxicity, as measured by LDH assay” value is reported as “at 100 uM or less did not show increased cell toxicity”. In series [2], the “cell toxicity, as measured by MTT assay” value was “at 100lM or less did not show increased cell toxicity”. Besides, the “nesting mean difference scores” value in series [4] (listed as CL287-1) is “significantly different”; in series [4] (listed as CL-287-1), “significantly improved nesting behavior”.
